# Laboratory results from patent publication US20260001862A1, “QUINOXALINEDIONE AND PYRIDO[2,3-B]PYRAZINE-2,3-DIONE B CELL LYMPHOMA 6 (BCL6) DEGRADERS AND USES THEREOF” (DANA-FARBER CANCER INSTITUTE, INC., priority 2022, published 2026).
# Target: T1, Endogenous BCL6 (Homo sapiens, UniProt P41182)
# T1 construct: Endogenous BCL6 was tagged with the 11-amino acid SmBiT through CRISPR/Cas9 gene editing; endogenous in cells; host or cells: SU-DHL-4 (CRISPR/Cas9 knock-in single cell clone)
# Test: HiBiT cellular degradation assay in SU-DHL-4 cells
# Type: cell-based
# Details: 24 hours of compound treatment, concentration to reach 50% degradation
# Method: DC50 (concentration to reach 50% degradation) values were determined from a cellular degradation assay (HiBiT, Promega™) in Su-DHL-4 cells (Table 1). Endogenous BCL6 was tagged with the 11-amino acid SmBiT through CRISPR/Cas9 gene editing and single cell clone selection. After 24 hours of compound treatment, cells were lysed and incubated with LgBiT protein to reconstitute intact nanoluciferase. Substrate was then added and relative luciferase units were measured. Degradation levels for each treatment were taken as a percentage compared to the control, 100% DMSO (Prism).
row,Structure (SMILES),DC50 [nM]
1,"CNC(=O)CCn1c(=O)c(=O)n(C)c2ccc(Nc3nc(N4C[C@H](C)C[C@H](C)C4)ncc3Cl)cc21 [Compound 1, 3-(7-((5-chloro-2-((3S,5R)-3,5-dimethylpiperidin-1-yl)pyrimidin-4-yl)amino)-4-methyl-2,3-dioxo-3,4-dihydroquinoxalin-1(2H)-yl)-N-methylpropanamide]",25
2,C[C@@H]1CN(c2ncc(Cl)c(Nc3ccc4c(c3)n(CCC(=O)NC3CN(C)C3)c(=O)c(=O)n4C)n2)C[C@H](C)C1(F)F [Compound 8],> 10000
3,C[C@@H]1CN(c2ncc(Cl)c(Nc3ccc4c(c3)n(CCC(=O)NC3CCN(C)C3)c(=O)c(=O)n4C)n2)C[C@H](C)C1(F)F (stereo partly shown) [Compound 9],220
4,C[C@@H]1CN(c2ncc(Cl)c(Nc3ccc4c(c3)n(CCC(=O)NCC3CN(C)C3)c(=O)c(=O)n4C)n2)C[C@H](C)C1(F)F [Compound 11],3100
5,C[C@@H]1CN(c2ncc(Cl)c(Nc3ccc4c(c3)n(CCC(=O)NCC3CCN(C)C3)c(=O)c(=O)n4C)n2)C[C@H](C)C1(F)F (stereo partly shown) [Compound 12],1800
6,C[C@@H]1CN(c2ncc(Cl)c(Nc3ccc4c(c3)n(CCC(=O)NCCN(C)C)c(=O)c(=O)n4C)n2)C[C@H](C)C1(F)F [Compound 18],450
7,C[C@@H]1CN(c2ncc(Cl)c(Nc3ccc4c(c3)n(CCC(=O)NCCCN(C)C)c(=O)c(=O)n4C)n2)C[C@H](C)C1(F)F [Compound 19],500
8,C[C@@H]1CN(c2ncc(Cl)c(Nc3ccc4c(c3)n(CCC(=O)NC3COC3)c(=O)c(=O)n4C)n2)C[C@H](C)C1(F)F [Compound 28],32
9,C[C@@H]1CN(c2ncc(Cl)c(Nc3ccc4c(c3)n(CCC(=O)NC3CCOC3)c(=O)c(=O)n4C)n2)C[C@H](C)C1(F)F (stereo partly shown) [Compound 29],71
10,C[C@@H]1CN(c2ncc(Cl)c(Nc3ccc4c(c3)n(CCC(=O)NCC3COC3)c(=O)c(=O)n4C)n2)C[C@H](C)C1(F)F [Compound 31],160
11,C[C@@H]1CN(c2ncc(Cl)c(Nc3ccc4c(c3)n(CCC(=O)NCC3CCOC3)c(=O)c(=O)n4C)n2)C[C@H](C)C1(F)F (stereo partly shown) [Compound 32],150
12,"CNC(=O)Cn1c(=O)c(=O)n(C)c2ccc(Nc3nc(N4C[C@@H](C)C(F)(F)[C@@H](C)C4)ncc3Cl)cc21 [Compound 56, 2-(7-((5-chloro-2-((3R,5S)-4,4-difluoro-3,5-dimethylpiperidin-1-yl)pyrimidin-4-yl)amino)-4-methyl-2,3-dioxo-3,4-dihydroquinoxalin-1(2H)-yl)-N-methylacetamide]",14
13,C[C@@H]1CN(c2ncc(Cl)c(Nc3ccc4c(c3)n(CC(=O)NCCN(C)C)c(=O)c(=O)n4C)n2)C[C@H](C)C1(F)F [Compound 57],340
14,C[C@@H]1CN(c2ncc(Cl)c(Nc3ccc4c(c3)n(CC(=O)NC3CN(C)C3)c(=O)c(=O)n4C)n2)C[C@H](C)C1(F)F [Compound 58],870
15,C[C@@H]1CN(c2ncc(Cl)c(Nc3ccc4c(c3)n(CC(=O)NC3CCN(C)C3)c(=O)c(=O)n4C)n2)C[C@H](C)C1(F)F (stereo partly shown) [Compound 59],970
16,C[C@@H]1CN(c2ncc(Cl)c(Nc3ccc4c(c3)n(CC(=O)NC3CCN(C)CC3)c(=O)c(=O)n4C)n2)C[C@H](C)C1(F)F [Compound 60],1120
17,CNC(=O)C(C)(C)Cn1c(=O)c(=O)n(C)c2ccc(Nc3nc(N4C[C@@H](C)C(F)(F)[C@@H](C)C4)ncc3Cl)cc21 [Compound 68],100
18,C[C@@H]1CN(c2ncc(Cl)c(Nc3ccc4c(c3)n(CCC(=O)NCC(C)(C)O)c(=O)c(=O)n4C)n2)C[C@H](C)C1(F)F [Compound 73],130

# More lines, now with the values ahead:
row,DC50 [nM],Structure (SMILES)
1,290,CNC(=O)[C@H]1C[C@@H](n2c(=O)c(=O)n(C)c3ccc(Nc4nc(N5C[C@@H](C)C(F)(F)[C@@H](C)C5)ncc4Cl)cc32)C1 [Compound 75-1]
2,100,CNC(=O)[C@H]1C[C@H](n2c(=O)c(=O)n(C)c3ccc(Nc4nc(N5C[C@@H](C)C(F)(F)[C@@H](C)C5)ncc4Cl)cc32)C1 [Compound 75-2]
3,> 10000,CNC(=O)CCn1c(=O)c(=O)n(C)c2ccc(Nc3nc(N4C[C@H](CCN)C(F)(F)[C@H](C)C4)ncc3Cl)cc21 [Compound 80]
4,250,CNC(=O)CCn1c(=O)c(=O)n(C)c2ccc(Nc3nc(N4C[C@@H](CCN)C(F)(F)[C@@H](C)C4)ncc3Cl)cc21 [Compound 81]
5,84,CNC(=O)CCn1c(=O)c(=O)n(C)c2ccc(Nc3nc(N4C[C@@H](C)C(F)(F)[C@@H](N)C4)ncc3Cl)cc21 [Compound 82]
6,920,CNC(=O)CCn1c(=O)c(=O)n(C)c2ccc(Nc3nc(N4C[C@@H](N)C(F)(F)[C@@H](C)C4)ncc3Cl)cc21 [Compound 83]
7,94,CNC(=O)CCn1c(=O)c(=O)n(C)c2ccc(Nc3nc(N4C[C@@H](O)C(F)(F)[C@@H](C)C4)ncc3Cl)cc21 [Compound 85]
8,120,CNC(=O)Cn1c(=O)c(=O)n(C)c2ccc(Nc3nc(N4C[C@@H](C)C(F)(F)[C@@H](N)C4)ncc3Cl)cc21 [Compound 86]
9,230,CNC(=O)Cn1c(=O)c(=O)n(C)c2ccc(Nc3nc(N4C[C@@H](N)C(F)(F)[C@@H](C)C4)ncc3Cl)cc21 [Compound 87]
10,47,C[C@@H]1C[C@H](C)CN(c2ncc(Cl)c(Nc3ccc4c(c3)n(CC[C@@H](C)O)c(=O)c(=O)n4C)n2)C1 [Compound 107]
11,43,C[C@@H]1CN(c2ncc(Cl)c(Nc3ccc4c(c3)n(C[C@H]3C[C@H](O)C3)c(=O)c(=O)n4C)n2)C[C@H](C)C1F (stereo partly shown) [Compound 108]
12,4,C[C@@H]1CN(c2ncc(Cl)c(Nc3ccc4c(c3)n(C[C@H]3C[C@@H](O)C3)c(=O)c(=O)n4C)n2)C[C@H](C)C1F (stereo partly shown) [Compound 109]
13,18,C[C@@H]1CN(c2ncc(Cl)c(Nc3ccc4c(c3)n(CCC3(O)CC3)c(=O)c(=O)n4C)n2)C[C@H](C)C1F (stereo partly shown) [Compound 110]
14,34,C[C@@H]1CN(c2ncc(Cl)c(Nc3ccc4c(c3)n(CCC3(O)CCC3)c(=O)c(=O)n4C)n2)C[C@H](C)C1F (stereo partly shown) [Compound 111]
15,25,C[C@@H]1CN(c2ncc(Cl)c(Nc3ccc4c(c3)n(CCC3(O)COC3)c(=O)c(=O)n4C)n2)C[C@H](C)C1F (stereo partly shown) [Compound 112]
16,130,C[C@@H]1CN(c2ncc(Cl)c(Nc3ccc4c(c3)n(C[C@@H]3CNC(=O)O3)c(=O)c(=O)n4C)n2)C[C@H](C)[C@@H]1F [Compound 117]
17,120,C[C@@H]1CN(c2ncc(Cl)c(Nc3ccc4c(c3)n(C[C@@H]3COC(=O)N3)c(=O)c(=O)n4C)n2)C[C@H](C)[C@@H]1F [Compound 118]
18,13,C[C@@H]1CN(c2nc(Nc3ccc4c(c3)n(CCC3(O)CC3)c(=O)c(=O)n4C)c(Cl)cc2C#N)C[C@H](C)[C@@H]1F [Compound 119]
19,1900,CNC(=O)CCn1c(=O)c(=O)n(C)c2ccc(Nc3nc(N4C[C@H](CCO)C(F)(F)[C@H](C)C4)c(C#N)cc3Cl)cc21 [Compound 120]
20,71,CNC(=O)CCn1c(=O)c(=O)n(C)c2ccc(Nc3nc(N4C[C@@H](CCO)C(F)(F)[C@@H](C)C4)c(C#N)cc3Cl)cc21 [Compound 121]
21,19,C[C@@H]1CN(c2ncc(Cl)c(Nc3ccc4c(c3)n(CC[C@@H](C)O)c(=O)c(=O)n4C)n2)C[C@H](C)[C@@H]1F [Compound 122]
22,23,C[C@H](O)CCn1c(=O)c(=O)n(C)c2ccc(Nc3nc(N4C[C@@H](C)[C@@H](F)[C@@H](C)C4)ncc3Cl)cc21 [Compound 123]
